Experimental data taken from patent US20240327791A1, “METHODS OF T CELL PRODUCTION” (Adaptimmune Limited, priority 2021, published 2024).
“Also recorded” adds a separate entry of the source.

Columns and labels:
Type in all cases: cell-based
[1] = system: haematopoietic progenitor cells (iPSC derived CD34+ cells); test: Viability and proliferation of HPCs / iPro T cells cultured with pyrimidoindole compound (cell counts, NC-250); conditions: for viability of cells: UM729 0.25 μM to 1.0 μM (up to 1 μM)
Description: iPSC cells (HCP1324_c1A12) were differentiated to day 16, using our in-house Proprietary media. HPC (CD34+ cells) were isolated using MACS and a cryopreserved bank of these cells was created for further differentiation into iT-Cells. HPC were then thawed and seeded at 5000 cells per cm^2 in 1 ml of lymphoid progenitor (stage 4; LP) media on the standard SCT's coating (2.5 μL/cm^2). UM729 was added to the culture media in a range of concentrations from 0.25 μM-5 μM. On day 3, 1 mL of LP media with the required concentration of UM729 was added and further demi-media changes were carried out every 3 days, with the required media concentration. Every 14 days cells were removed from culture and counted using NC-250. The cells were then replated on to fresh SCT matrix and UM729 was added to the media at the relevant concentration. Cells were removed from the cultures after 21, 35 and 42 days and phenotyped using the panel in Table 1. At these timepoints cells were either continued on in lymphoid progenitor media with the relevant UM729 concentrations or transferred into T cell maturation conditions. On day 21, 35 and 42 of culture iPro T Cells were seeded onto fresh SCT matrix (2.5 μl/cm^2) at a density of 250,000 cells per cm^2. Cells were cultured in T-Cell maturation media either with or without UM729 (0.25-5 μM), with demi-media changes every 3 days for 2 weeks. After 2 weeks of maturation the cells were counted using the NC-250 and phenotyped by flow cytometry using the panel in Table 1.

[2] = system: haematopoietic progenitor cells (iPSC derived CD34+ cells); test: Flow cytometry phenotyping of HPCs differentiated in lymphoid progenitor (stage 4) medium with pyrimidoindole compound
Description: (§1) HPC were then thawed and seeded at 5000 cells per cm^2 in 1 ml of lymphoid progenitor (stage 4; LP) media on the standard SCT's coating (2.5 μL/cm^2). UM729 was added to the culture media in a range of concentrations from 0.25 μM-5 μM. On day 3, 1 mL of LP media with the required concentration of UM729 was added and further demi-media changes were carried out every 3 days, with the required media concentration. Every 14 days cells were removed from culture and counted using NC-250. The cells were then replated on to fresh SCT matrix and UM729 was added to the media at the relevant concentration. Cells were removed from the cultures after 21, 35 and 42 days and phenotyped using the panel in Table 1. At these timepoints cells were either continued on in lymphoid progenitor media with the relevant UM729 concentrations or transferred into T cell maturation conditions. On the day of the assay, the cells were counted, washed twice in FACS Buffer and phenotyped by flow cytometry for T-cell markers.

iPro T cells [3] = test: Expansion of iPro T cells in stage 4 medium; conditions: UM729 0.25 μM to 1.0 μM in stage 4 medium, up to 42 days
Description: as §1, with “conditions.” for “conditions. On the day of the assay, the cells were counted, washed twice in FACS Buffer and phenotyped by flow cytometry for T-cell markers.”

iPro T cells [4] = test: T cell maturation in stage 5 medium after stage 4 pre-treatment, flow cytometry; conditions: pre-treated with UM729 21 days in stage 4 medium, then 14 days stage 5 medium without UM729
Description: On day 21, 35 and 42 of culture iPro T Cells were seeded onto fresh SCT matrix (2.5 μl/cm^2) at a density of 250,000 cells per cm^2. Cells were cultured in T-Cell maturation media either with or without UM729 (0.25-5 μM), with demi-media changes every 3 days for 2 weeks. After 2 weeks of maturation the cells were counted using the NC-250 and phenotyped by flow cytometry using the panel in Table 1. On the day of the assay, the cells were counted, washed twice in FACS Buffer and phenotyped by flow cytometry for T-cell markers.

iPro T cells [5] = test: Recovery of iPro T cells from freeze/thaw and culture in stage 5 medium; conditions: pre-treated with UM729 at 1 μM in stage 4 medium; 7 days in stage 5 medium
[6] = UM729 5.0 μM or higher, 21 days
[7] = UM729 0.25 μM to 1.0 μM in stage 4 media, 21 days
[8] = UM729 0.25 μM to 1.0 μM, 21 days
[9] = UM729 0.25 μM to 1.0 μM, 35 days (UM729 also in stage 5 cultures)

COC(=O)c1ccc2c(c1)[nH]c1ncnc(NCCCN3CCCCC3)c12 [UM729, methyl 4-(3-piperidin-1-ylpropylamino)-9H-pyrimido[4,5-b]indole-7-carboxylate]
viability of cells ([1]; 21 days): maintain viability; also recorded: not to affect the viability | viability of cells ([1]; 35 days): not to affect the viability; also recorded: maintain viability | proliferation of total cells [1, 6]: reduced or ceases; also recorded: ceased | viability of total cells [1, 6]: reduced or ceases; also recorded: comparably low | cytotoxic effects ([1]; UM729 at concentrations of 5 μM and above): cytotoxic effects were observed | differentiation into / yield of CD7+CD5+ iPro T cells (FIG. 4A) [2, 7]: promotes differentiation into iProT cells; also recorded: increase the yield | percentage of CD7+CD5+ iPro T cells (FIG. 4B) [2, 7]: enriches the percentage of iProT cells; also recorded: enrich the percentage | fraction of CD8+CD4+ double positive cells (further differentiation to DP T cells) ([2]; UM729 0.25 μM to 1.0 μM in stage 4 medium, 21 days): decreases the fraction of CD8+CD4+ double positive cells; also recorded: inhibited further differentiation | lymphoid fraction of the cells [2, 8]: increases the lymphoid fraction | myeloid fraction of the cells (myeloid cellular contamination) [2, 8]: reduces the myeloid fraction; also recorded: reduce this cellular contamination in a dose dependent manner | differentiation into / percentage of CD7+CD5+ iPro T cells (FIG. 7) [2, 9]: increasing; also recorded: promotes differentiation into iProT cells | fraction / development of CD8+CD4+ double positive cells (FIG. 8) [2, 9]: inhibited in a dose dependent manner; also recorded: decreases the fraction of CD8+CD4+ double positive cells | expansion of iPro T cells (FIG. 9) (iPro T cells [3]): supported over 42 days; also recorded: greatly enhances the expansion of iProT cells | differentiation to CD4+CD8+ double positive T cells after removal of UM729 (FIG. 10) (iPro T cells [4]): found to be removed; also recorded: will become CD4+CD8+ double positive | cell proliferation after culture in stage 5 medium (FIG. 12B) (iPro T cells [5]): increased cell proliferation | viability after culture in stage 5 medium (FIG. 12A) (iPro T cells [5]): higher viability
